The EC50 is the concentration at which the effect is half-maximal. Higher therefore signals weaker potency.

These results are taken from US7183304B2, “Heterocyclic compounds and methods of use” (Novartis AG, priority 2001, dated 2007).

What all share (assay type): biochemical
Common to all, as to details: TR-FRET coactivator (SRC-1) recruitment
Background: In TR-FRET formats the signal depends on donor and acceptor labels being close together.

The target in assay [1] is T1, PPARα receptor (GST-hPPARα LBD) (Homo sapiens, UniProt Q07869).
T1 construct: made in house; host or cells: E. coli BL21 (DE3), pGEX vector
T1 sequence (Q07869 167-468): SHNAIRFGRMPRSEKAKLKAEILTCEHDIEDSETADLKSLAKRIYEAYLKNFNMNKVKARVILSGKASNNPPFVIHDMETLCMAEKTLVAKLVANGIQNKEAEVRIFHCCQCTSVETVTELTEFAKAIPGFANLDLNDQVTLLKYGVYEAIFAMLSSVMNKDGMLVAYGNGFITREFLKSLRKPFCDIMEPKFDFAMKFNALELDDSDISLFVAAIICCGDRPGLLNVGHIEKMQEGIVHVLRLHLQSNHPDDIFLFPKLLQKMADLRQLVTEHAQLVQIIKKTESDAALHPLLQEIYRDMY
Nature of the assay: PPARα functional binding assay (CARLA, TR-FRET). The protocol: (§1) The in vitro functional binding to the PPARα, PPARδ and PPARγ receptors is determined as follows:
(§2) The functional binding assays for the PPARα, PPARδ and PPARγ receptors are a variation of the coactivator-dependent receptor ligand assay (CARLA) (see Krey et al., “Fatty Acids, Eicosanoids, and Hypolipidemic Agents Identified as Ligands of Peroxisome Proliferator-Activated Receptors by Coactivator-Dependent Receptor Ligand Assay”, Molecular Endocrinology, Vol. 11, pp. 779–791 (1997)). The present CARLA assays use a TR-FRET detection method previously reviewed (see Hemmila, “LANCE: Homogeneous Assay Platform for HTS”, J. Biomol. Screening, Vol. 4, pp. 303–307 (1999); Mathis, “HTRF Technology”, J. Biomol. Screening, Vol. 4, pp. 309–313 (1999)). All assays included 3 nM of the glutathione-S-transferase (GST) fusion proteins of either the hPPARα ligand binding domain (LBD) (amino acids 167–468) (GST-hPPARα LBD), GST-hPPARδ LBD (amino acids 139–442) or GST-hPPARγ LBD (amino acids 175–476); 3 nM Eu-labeled anti-GST antibody (Wallac); 30 nM biotinylated steroid receptor coactivator-1 (SRC-1) peptide (an N-terminal biotinylated peptide, […], derived from amino acids 676–700 of SRC-1); and 10 nM streptavidin-labelled allophycocyanin (APC; Prozyme). The binding of a ligand to a PPAR LBD alters the conformation of the LBD and permits the biotinylated SRC-1 peptide to bind. This brings the Eu-labeled anti-GST antibody and the strepavidin-labeled APC in close proximity, thereby facilitating fluorescence energy transfer. The biotinylated SRC-1 peptide is prepared by standard solid-phase peptide synthetic methods. The GST-PPAR LBDs are expressed in pGEX vectors (Amersham Pharmacia) in the E. coli strain BL21 (DE3) using standard expression conditions at 18° C. In some cases the GST-PPAR LBDs are co-expressed with groESL. […] After mixing all components, the reaction mixture stands for 3 hours at room temperature before reading the TR-FRET (Time-Resolved Fluorescence Resonance Energy Transfer) signal on a Wallac Victor 2 plate reader (measuring the ratio of signals at […]). […]

The target of assay [2] is T2, PPARγ receptor (GST-hPPARγ LBD) (Homo sapiens, UniProt P37231).
T2 construct: GST-hPPARγ LBD (amino acids 175–476); made in house; host or cells: E. coli BL21 (DE3), pGEX vector
T2 sequence (P37231 175-476 isoform P37231-2): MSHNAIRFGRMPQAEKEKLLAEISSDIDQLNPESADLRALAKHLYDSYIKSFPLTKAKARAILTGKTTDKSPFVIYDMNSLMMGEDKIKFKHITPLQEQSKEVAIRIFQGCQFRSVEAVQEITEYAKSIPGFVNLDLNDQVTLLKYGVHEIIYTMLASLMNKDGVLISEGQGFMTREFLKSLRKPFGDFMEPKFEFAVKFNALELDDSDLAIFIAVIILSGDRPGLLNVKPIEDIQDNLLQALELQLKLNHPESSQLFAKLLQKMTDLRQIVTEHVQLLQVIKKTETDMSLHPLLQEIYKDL
Nature of the assay: PPARγ functional binding assay (CARLA, TR-FRET). The protocol:
as §1, §2

Assay [3] concerns the target T3, PPARδ receptor (GST-hPPARδ LBD) (Homo sapiens, UniProt Q03181).
T3 construct: GST-hPPARδ LBD (amino acids 139–442); made in house; host or cells: E. coli BL21 (DE3), pGEX vector
T3 sequence (Q03181 139-441 limits assumed): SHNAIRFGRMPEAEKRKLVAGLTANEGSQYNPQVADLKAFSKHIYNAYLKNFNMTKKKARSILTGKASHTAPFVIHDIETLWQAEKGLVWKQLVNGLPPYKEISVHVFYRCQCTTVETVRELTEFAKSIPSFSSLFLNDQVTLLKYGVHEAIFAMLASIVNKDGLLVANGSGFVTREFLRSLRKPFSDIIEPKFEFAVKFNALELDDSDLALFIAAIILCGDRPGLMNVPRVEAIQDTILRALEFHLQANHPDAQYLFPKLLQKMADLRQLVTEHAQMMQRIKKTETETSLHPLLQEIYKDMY
T3 sequence (Q15788 676-700 partner limits assumed): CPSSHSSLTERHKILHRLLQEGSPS
Kind of assay: PPARδ functional binding assay (CARLA, TR-FRET). The method, then:
as §1, §2

With `Cc1oc(-c2ccccc2)nc1COc1ccc(S(=O)(=O)N2CC[C@@H]2C(=O)O)cc1` [Example 5–10, (R)-1-[4-(5-Methyl-2-phenyl-oxazol-4-ylmethoxy)-benzenesulfonyl]-azetidine-2-carboxylic acid], the concentration for a half-maximal effect (EC50) was approximately 3 nM in assay [1], approximately 3 nM in assay [2] and approximately 1250 nM in assay [3].

On to `CCCc1cc(Oc2ccccc2)ccc1OCCCOc1ccc(S(=O)(=O)N2c3ccccc3C[C@@H]2C(=O)O)cc1` [Example 1, (R)-1-{4-[3-(4-Phenoxy-2-propyl-phenoxy)-propoxy]-benzenesulfonyl}-2,3-dihydro-1H-indole-2-carboxylic acid], for which the EC50 is approximately 27 nM in assay [1], approximately 23 nM in assay [2] and approximately 173 nM in assay [3].

With `Cc1oc(-c2ccccc2)nc1COc1ccc(S(=O)(=O)N2CCC[C@@H]2C(=O)O)cc1` [Example 6–39, (R)-1-[4-(5-Methyl-2-phenyl-oxazol-4-ylmethoxy)-benzenesulfonyl]-pyrrolidine-2-carboxylic acid], the values for the EC50 in assay [1], in assay [2] and in assay [3] were approximately 7 nM, approximately 2 nM and approximately 1160 nM, respectively.
